Here are results for 18 molecules from patent US8791131B2, “Imidazo[1,5]naphthyridine compounds, their pharmaceutical use and compositions” (Pfizer Inc., priority 2008, dated 2014).

Like-named read-outs stand apart in the source and are kept apart here.

One assay deals with mTOR (Homo sapiens (Human), UniProt P42345).
The next assay concerns the target PI3-Kα (Mus musculus (Mouse), UniProt P42337). Nature of the assay: PI3-Kα biochemical assay (in vitro kinase assay, fluorescence polarization).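 Note: Insect-cell-expressed mouse p110/p85 complex converting PI(4,5)P2, product PI(3,4,5)P3 detected by displacing TAMRA-tagged PI(3,4,5)P3 from Grip1 PH domain, lower polarization means more product, room temperature.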 The settings on record: Ki calculated from IC50, [ATP]=30 uM, Km=25 uM.
Assay [1] has as its system PI3-K (phosphorylation of AKT at serine 473) in BT20 cells. Nature of the assay: PI3-Kα cellular assay (phospho-AKT Ser473 ELISA in BT20 cells).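 Note: lysates read by ELISA with TMB colour at 450 nm, cells given 0.5% DMSO vehicle serve as positive control and cell-free wells as negative control, duplicate wells per concentration.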 The settings on record: Homo sapiens, BT-20, 1 h. For orientation: An ELISA detects its analyte on a solid surface through an enzyme-linked reagent.
The mark [2] stands for this setting: read-out: S473 pAKT 0.5% FBS IC50 (μM).
[3] abbreviates: read-out: S473 pAKT 10% FBS IC50 (μM).

PI3-Kα, sequence (P42337 whole entry, the tested form may be a part): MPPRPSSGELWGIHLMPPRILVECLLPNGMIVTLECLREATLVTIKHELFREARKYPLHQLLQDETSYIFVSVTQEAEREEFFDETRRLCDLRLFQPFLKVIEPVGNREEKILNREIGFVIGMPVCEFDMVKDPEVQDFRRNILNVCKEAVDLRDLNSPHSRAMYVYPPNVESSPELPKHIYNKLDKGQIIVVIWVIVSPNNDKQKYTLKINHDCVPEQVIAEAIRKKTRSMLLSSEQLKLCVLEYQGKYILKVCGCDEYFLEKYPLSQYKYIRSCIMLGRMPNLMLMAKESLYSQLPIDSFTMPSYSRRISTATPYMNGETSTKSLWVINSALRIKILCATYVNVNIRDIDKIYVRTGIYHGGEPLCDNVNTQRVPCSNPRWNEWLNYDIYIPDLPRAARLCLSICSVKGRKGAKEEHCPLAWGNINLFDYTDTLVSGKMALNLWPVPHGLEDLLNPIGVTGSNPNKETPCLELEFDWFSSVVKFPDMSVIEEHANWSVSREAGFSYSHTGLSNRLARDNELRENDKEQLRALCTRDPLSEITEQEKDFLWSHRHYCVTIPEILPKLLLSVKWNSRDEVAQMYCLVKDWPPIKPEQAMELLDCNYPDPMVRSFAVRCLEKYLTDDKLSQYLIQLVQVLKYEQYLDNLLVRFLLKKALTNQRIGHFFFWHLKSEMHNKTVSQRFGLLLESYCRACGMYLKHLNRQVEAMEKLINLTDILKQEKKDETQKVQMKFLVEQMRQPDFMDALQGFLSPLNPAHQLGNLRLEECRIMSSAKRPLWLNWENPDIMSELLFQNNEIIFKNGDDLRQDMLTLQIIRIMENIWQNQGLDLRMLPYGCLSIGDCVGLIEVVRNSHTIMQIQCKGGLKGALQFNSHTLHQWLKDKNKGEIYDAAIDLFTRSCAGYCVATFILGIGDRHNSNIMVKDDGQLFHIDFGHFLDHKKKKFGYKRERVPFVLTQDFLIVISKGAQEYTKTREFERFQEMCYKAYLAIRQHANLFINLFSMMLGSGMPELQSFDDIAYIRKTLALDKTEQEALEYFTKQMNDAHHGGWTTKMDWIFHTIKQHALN
PI3-Kα, sequence (P26450 whole entry partner, the tested form may be a part): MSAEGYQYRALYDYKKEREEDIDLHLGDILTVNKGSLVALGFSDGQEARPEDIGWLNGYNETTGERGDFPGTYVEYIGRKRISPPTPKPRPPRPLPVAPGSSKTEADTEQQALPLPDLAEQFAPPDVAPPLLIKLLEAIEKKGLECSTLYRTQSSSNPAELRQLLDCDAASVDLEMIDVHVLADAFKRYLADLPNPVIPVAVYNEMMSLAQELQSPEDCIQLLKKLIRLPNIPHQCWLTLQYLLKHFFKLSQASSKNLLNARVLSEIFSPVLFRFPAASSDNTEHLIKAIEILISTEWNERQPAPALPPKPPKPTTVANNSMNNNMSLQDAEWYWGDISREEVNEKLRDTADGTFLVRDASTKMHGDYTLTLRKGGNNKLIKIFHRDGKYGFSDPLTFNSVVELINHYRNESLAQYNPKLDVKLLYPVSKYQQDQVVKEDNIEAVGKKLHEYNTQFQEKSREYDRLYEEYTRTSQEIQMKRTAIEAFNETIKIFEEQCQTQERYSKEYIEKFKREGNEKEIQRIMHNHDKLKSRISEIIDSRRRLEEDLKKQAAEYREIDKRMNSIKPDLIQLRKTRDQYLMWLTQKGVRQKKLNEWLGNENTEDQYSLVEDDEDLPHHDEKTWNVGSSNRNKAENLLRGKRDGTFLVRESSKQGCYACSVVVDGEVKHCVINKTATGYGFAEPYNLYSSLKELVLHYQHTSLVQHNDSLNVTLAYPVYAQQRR
mTOR, sequence (P42345 2156-2469): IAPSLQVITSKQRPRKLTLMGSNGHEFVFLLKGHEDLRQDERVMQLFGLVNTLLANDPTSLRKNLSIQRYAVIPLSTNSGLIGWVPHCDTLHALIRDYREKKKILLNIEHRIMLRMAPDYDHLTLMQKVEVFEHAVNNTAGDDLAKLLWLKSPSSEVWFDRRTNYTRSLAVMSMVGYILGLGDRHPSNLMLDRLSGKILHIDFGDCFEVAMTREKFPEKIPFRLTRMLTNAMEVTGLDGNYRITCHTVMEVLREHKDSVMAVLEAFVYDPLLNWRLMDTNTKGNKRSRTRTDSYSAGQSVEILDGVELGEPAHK

One may read the Ki as the dissociation constant of the complex between target and ligand, obtained from inhibition or displacement. Low readings indicate tighter binding, high ones weaker binding. For orientation: IC50 means the concentration needed to halve the response being measured. The molecule `COc1ccc(-c2ccc3ncc4[nH]c(=O)n(-c5ccc(C(C)(C)C#N)cc5)c4c3n2)cn1` [Compound 103, 2-{4-[8-(6-methoxypyridin-3-yl)-2-oxo-2,3-dihydro-1H-imidazo[4,5-c]-1,5-naphthyridin-1-yl]phenyl}-2-methylpropanenitrile] had a Ki at mTOR of 0.00209 µM. The “PI3Ka Ki” value on PI3-Kα is 0.00186 µM. The IC50 in assay [1] (setting [2]) stood at 0.0115 µM.
The corresponding values for `Cc1ccc(-c2ccc3ncc4c(c3n2)n(-c2ccc(C(C)(C)C#N)cc2)c(=O)n4C)cn1` [Compound 106, 2-methyl-2-{4-[3-methyl-8-(6-methylpyridin-3-yl)-2-oxo-2,3-dihydro-1H-imidazo[4,5-c]-1,5-naphthyridin-1-yl]phenyl}propanenitrile] are 0.0269 µM, 0.0348 µM and 0.0244 µM.
Regarding `CN(C)c1ccc(-c2ccc3ncc4[nH]c(=O)n(-c5ccc(C(C)(C)C#N)cc5)c4c3n2)cn1` [Compound 107, 2-(4-(8-(6-(dimethylamino)pyridin-3-yl)-2-oxo-2,3-dihydroimidazo[4,5-c][1,5]naphthyridin-1-yl)phenyl)-2-methylpropanenitrile], on mTOR, the Ki turned out to be 0.00426 µM. Further, on PI3-Kα, the “PI3Ka Ki” value was 0.00385 µM. Moreover, the 50% inhibitory concentration (IC50) in assay [1] (setting [2]) was 0.0676 µM.
The corresponding values for `CN(C)c1ccc(-c2ccc3ncc4c(c3n2)n(-c2ccc(C(C)(C)C#N)cc2)c(=O)n4C)cn1` [Compound 108, 2-(4-(8-(6-(dimethylamino)pyridin-3-yl)-3-methyl-2-oxo-2,3-dihydroimidazo[4,5-c][1,5]naphthyridin-1-yl)phenyl)-2-methylpropanenitrile] are 0.00467 µM, 0.00445 µM and 0.0309 µM.
The corresponding values for `COc1ncc(-c2ccc3ncc4[nH]c(=O)n(-c5ccc(C(C)(C)C#N)cc5)c4c3n2)cc1F` [Compound 109, 2-(4-(8-(5-fluoro-6-methoxypyridin-3-yl)-2-oxo-2,3-dihydroimidazo[4,5-c][1,5]naphthyridin-1-yl)phenyl)-2-methylpropanenitrile] are 0.00903 µM, 0.00381 µM and 0.197 µM.
`COc1ncc(-c2ccc3ncc4c(c3n2)n(-c2ccc(C(C)(C)C#N)cc2)c(=O)n4C)cc1F` [Compound 110, 2-(4-(8-(5-fluoro-6-methoxypyridin-3-yl)-3-methyl-2-oxo-2,3-dihydroimidazo[4,5-c][1,5]naphthyridin-1-yl)phenyl)-2-methylpropanenitrile] displayed a Ki at mTOR of 0.0266 µM. In addition, the “PI3Ka Ki” value at PI3-Kα is 0.00235 µM. For the same molecule, the IC50 in assay [1] (setting [3]) was 0.0907 µM.
Consider `COc1ncc(-c2ccc3ncc4[nH]c(=O)n(-c5ccc(C(C)(C)C#N)cc5)c4c3n2)cn1` [Compound 111, 2-(4-(8-(2-methoxypyrimidin-5-yl)-2-oxo-2,3-dihydroimidazo[4,5-c][1,5]naphthyridin-1-yl)phenyl)-2-methylpropanenitrile], for which the affinity at mTOR corresponds to a Ki of 0.00154 µM. Moreover, the “PI3Ka Ki” value on PI3-Kα is 0.0114 µM. Also, the IC50 in assay [1] (setting [2]) came out at 0.0439 µM.
On the same counts, the results for `Cn1cc(-c2ccc3ncc4[nH]c(=O)n(-c5ccc(C(C)(C)C#N)cc5)c4c3n2)cn1` [Compound 113, 2-Methyl-2-{4-[8-(1-methyl-1H-pyrazol-4-yl)-2-oxo-2,3-dihydro-1,3,5,9-tetraaza-cyclopenta[a]naphthalen-1-yl]-phenyl}-propionitrile] are 0.0155 µM, 0.0592 µM and 0.0973 µM.
The corresponding values for `Cn1cc(-c2ccc3ncc4c(c3n2)n(-c2ccc(C(C)(C)C#N)cc2)c(=O)n4C)cn1` [Compound 114, 2-Methyl-2-{4-[3-methyl-8-(1-methyl-1H-pyrazol-4-yl)-2-oxo-2,3-dihydro-1,3,5,9-tetraaza-cyclopenta[a]naphthalen-1-yl]-phenyl}-propionitrile] are 0.0402 µM, 0.0723 µM and 0.116 µM.
`O=c1[nH]c2cnc3ccc(-c4cnc5ccccc5c4)nc3c2n1C1CCNCC1` [Compound 117, 1-piperidin-4-yl-8-quinolin-3-yl-1,3-dihydro-2H-imidazo[4,5-c][1,5]naphthyridin-2-one]: at mTOR, the affinity, expressed as Ki, was 0.0124 µM. Moreover, the “PI3Ka Ki” value at PI3-Kα is 0.00243 µM. In addition, in assay [1] (setting [3]), the IC50 stood at 0.353 µM.
On mTOR, `CCN1CCC(n2c(=O)n(C)c3cnc4ccc(-c5cnc6ccccc6c5)nc4c32)CC1` [Compound 119, 1-(1-ethylpiperidin-4-yl)-3-methyl-8-quinolin-3-yl-1,3-dihydro-2H-imidazo[4,5-c][1,5]naphthyridin-2-one] gave a Ki of 0.00811 µM. In addition, at PI3-Kα, the “PI3Ka Ki” value was 0.00319 µM. Besides, the IC50 in assay [1] (setting [2]) amounted to 0.0117 µM.
The corresponding values for `CCC(=O)N1CCC(n2c(=O)n(C)c3cnc4ccc(-c5cnc6ccccc6c5)nc4c32)CC1` [Compound 121, 3-methyl-1-(1-propionylpiperidin-4-yl)-8-quinolin-3-yl-1,3-dihydro-2H-imidazo[4,5-c][1,5]naphthyridin-2-one] are 0.0079 µM, 0.000539 µM and 0.00786 µM.
The corresponding values for `COC(=O)N1CCC(n2c(=O)n(C)c3cnc4ccc(-c5cnc6ccccc6c5)nc4c32)CC1` [Compound 122, methyl4-(3-methyl-2-oxo-8-quinolin-3-yl-2,3-dihydro-1H-imidazo[4,5-c][1,5]napthyridin-1-yl)piperidine-1-carboxylate] are 0.0124 µM, 0.000806 µM and 0.00807 µM.
`CNC(=O)N1CCC(n2c(=O)n(C)c3cnc4ccc(-c5cnc6ccccc6c5)nc4c32)CC1` [Compound 123, N-methyl-4-(3-methyl-2-oxo-8-quinolin-3-yl-2,3-dihydro-1H-imidazo[4,5-c][1,5]naphthyridin-1-yl)piperidine-1-carboxamide] gave a Ki on mTOR of 0.00491 µM. Moreover, the “PI3Ka Ki” value at PI3-Kα was 0.00196 µM. Further, the IC50 in assay [1] (setting [2]) worked out at 0.00734 µM.
The corresponding values for `CC(C)C(=O)N1CCC(n2c(=O)n(C)c3cnc4ccc(-c5cnc6ccccc6c5)nc4c32)CC1` [Compound 125, 1-(1-isobutyrylpiperidin-4-yl)-3-methyl-8-quinolin-3-yl-1,3-dihydro-2H-imidazo[4,5-c][1,5]naphthyridin-2-one] are 0.00487 µM, 0.00106 µM and 0.0294 µM.
On mTOR, `CN1CCC(n2c(=O)n(C)c3cnc4ccc(-c5ccc(N(C)C)nc5)nc4c32)CC1` [Compound 207, 8-[6-(dimethylamino)pyridin-3-yl]-3-methyl-1-(1-methylpiperidin-4-yl)-1,3-dihydro-2H-imidazo[4,5-c][1,5]naphthyridin-2-one] yielded an inhibition constant Ki of 0.00962 µM. In addition, the half-inhibitory concentration (IC50) in assay [1] (setting [3]) is 0.0194 µM.
As to `CNC(=O)N1CCC(n2c(=O)n(C)c3cnc4ccc(-c5cnn(C)c5)nc4c32)CC1` [Compound 217, N-methyl-4-[3-methyl-8-(1-methyl-1H-pyrazol-4-yl)-2-oxo-2,3-dihydro-1H-imidazo[4,5-c][1,5]naphthyridin-1-yl]piperidine-1-carboxamide], on mTOR, the Ki turned out to be 0.0187 µM. Further, the IC50 in assay [1] (setting [3]) worked out at 0.0793 µM.
On mTOR, `COc1ccc(-c2ccc3ncc4c(c3n2)n(C2CCN(C(=O)CO)CC2)c(=O)n4C)cc1` [Compound 273, 1-(1-glycoloylpiperidin-4-yl)-8-(4-methoxyphenyl)-3-methyl-1,3-dihydro-2H-imidazo[4,5-c][1,5]naphthyridin-2-one] gave a Ki of 0.00342 µM. The IC50 in assay [1] (setting [3]) was 0.0174 µM.
